Assay results: the NIST ThermoML archive (doi:10.1021/je7001013)

Key:
[1] = refractive index (Na D-line) (dimensionless); conditions: 101.33 kPa, Liquid
[2] = xn = mol fraction of the nth substance listed
[3] = refractive index (Na D-line) (dimensionless); xn = mol fraction of the nth substance listed; conditions: 101 kPa, Liquid

C[S+](C)[O-] [dimethyl sulfoxide]
Conditions | surface tension liquid-gas [mN/m]
298.15 K | 41.7
303.15 K | 41
308.15 K | 40.3
313.15 K | 39.7
318.15 K | 39.1
323.15 K | 38.5
328.15 K | 37.9

[1]
Conditions | refractive index
298.15 K | 1.4765
303.15 K | 1.474
308.15 K | 1.472

CCCS(=O)CCC [dipropyl sulfoxide]
Conditions | surface tension liquid-gas [mN/m]
298.15 K | 32.6
303.15 K | 32
308.15 K | 31.5
313.15 K | 31
318.15 K | 30.5
323.15 K | 29.9
328.15 K | 29.4

[1]
Conditions | refractive index
298.15 K | 1.4595
303.15 K | 1.458
308.15 K | 1.456

CCCS(=O)CCC [dipropyl sulfoxide] + O
Conditions | refractive index, [3] | surface tension liquid-gas, [2] [mN/m]
298.15 K, x1 = 0.0105 | 1.344 | 52.3
298.15 K, x1 = 0.01985 | 1.3516 | –
298.15 K, x1 = 0.0199 | – | 47.4
298.15 K, x1 = 0.0469 | 1.374 | 42.2
298.15 K, x1 = 0.0998 | 1.4009 | 39.6
298.15 K, x1 = 0.2019 | 1.4305 | 37.5
298.15 K, x1 = 0.2809 | 1.4395 | 37.2
298.15 K, x1 = 0.3975 | 1.446 | 35.8
298.15 K, x1 = 0.5001 | – | 35.4
298.15 K, x1 = 0.5049 | 1.4502 | –
298.15 K, x1 = 0.6818 | 1.455 | 34.3
298.15 K, x1 = 0.9002 | 1.458 | –
303.15 K, x1 = 0.0105 | 1.343 | 51.1
303.15 K, x1 = 0.01985 | 1.351 | –
303.15 K, x1 = 0.0199 | – | 46.4
303.15 K, x1 = 0.0469 | 1.3725 | 41.5
303.15 K, x1 = 0.0998 | 1.399 | 38.9
303.15 K, x1 = 0.2019 | 1.4285 | 37
303.15 K, x1 = 0.2809 | 1.4375 | 36.5
303.15 K, x1 = 0.3975 | 1.4455 | 35.2
303.15 K, x1 = 0.5001 | – | 34.9
303.15 K, x1 = 0.5049 | 1.4495 | –
303.15 K, x1 = 0.6818 | 1.454 | 34.2
303.15 K, x1 = 0.9002 | 1.4555 | –
308.15 K, x1 = 0.0105 | 1.342 | 49.9
308.15 K, x1 = 0.01985 | 1.3506 | –
308.15 K, x1 = 0.0199 | – | 45.3
308.15 K, x1 = 0.0469 | 1.3711 | 40.7
308.15 K, x1 = 0.0998 | 1.398 | 38.1
308.15 K, x1 = 0.2019 | 1.4245 | 36.5
308.15 K, x1 = 0.2809 | 1.435 | 36
308.15 K, x1 = 0.3975 | 1.4445 | 34.5
308.15 K, x1 = 0.5001 | – | 34.3
308.15 K, x1 = 0.5049 | 1.4486 | –
308.15 K, x1 = 0.6818 | 1.452 | 33.5
308.15 K, x1 = 0.9002 | 1.454 | –
313.15 K, x1 = 0.0105 | – | 48.8
313.15 K, x1 = 0.0199 | – | 44.4
313.15 K, x1 = 0.0469 | – | 40
313.15 K, x1 = 0.0998 | – | 37.3
313.15 K, x1 = 0.2019 | – | 35.9
313.15 K, x1 = 0.2809 | – | 35
313.15 K, x1 = 0.3975 | – | 34.1
313.15 K, x1 = 0.5001 | – | 33.8
313.15 K, x1 = 0.6818 | – | 32.9
318.15 K, x1 = 0.0105 | – | 47.6
318.15 K, x1 = 0.0199 | – | 44.3
318.15 K, x1 = 0.0469 | – | 39.3
318.15 K, x1 = 0.0998 | – | 36.6
318.15 K, x1 = 0.2019 | – | 35
318.15 K, x1 = 0.2809 | – | 34.4
318.15 K, x1 = 0.3975 | – | 33.4
318.15 K, x1 = 0.5001 | – | 33.3
318.15 K, x1 = 0.6818 | – | 32.2
323.15 K, x1 = 0.0105 | – | 46.6
323.15 K, x1 = 0.0199 | – | 43.2
323.15 K, x1 = 0.0469 | – | 38.5
323.15 K, x1 = 0.0998 | – | 35.7
323.15 K, x1 = 0.2019 | – | 34.4
323.15 K, x1 = 0.2809 | – | 33.8
323.15 K, x1 = 0.3975 | – | 32.8
323.15 K, x1 = 0.5001 | – | 32.7
323.15 K, x1 = 0.6818 | – | 31.6
328.15 K, x1 = 0.0105 | – | 45.6
328.15 K, x1 = 0.0199 | – | 42.2
328.15 K, x1 = 0.0469 | – | 37.8
328.15 K, x1 = 0.0998 | – | 35
328.15 K, x1 = 0.2019 | – | 33.7
328.15 K, x1 = 0.2809 | – | 33.1
328.15 K, x1 = 0.3975 | – | 32.2
328.15 K, x1 = 0.5001 | – | 32.1
328.15 K, x1 = 0.6818 | – | 30.8
